Among the test systems are NCI-H522 lung; NCI-H226 lung; T-47D breast; MDA-MB-435; HOP-62 NSCLC; SK-MEL-5 melanoma; MOLT-4 leukemia.
Holding throughout (experiment): NCI tumour cell line growth inhibition, 48 h

Results on eleven compounds are retold here after PubChem BioAssay (NCI).

“And” between values parts separate entries of the source, which are not always exact repeats. Equal entries are not always repeated.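 Protocol summary: plate cells (96-well), add compound at 5 concentrations, incubate 48 h, interpolate endpoints linearly. GI50 marks 50% less growth. TGI: concentration producing complete growth inhibition.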

Regarding `Cc1cc(=O)oc2cc(OC/C=C3\CCC(=O)O3)ccc12`, the GI50 in the assay with NCI-H522 lung is 7.82 µM; in the assay on NCI-H226 lung it was 24 µM; in the assay with T-47D breast, 14.3 µM; in the assay on MDA-MB-435 it was 7.23 µM; with HOP-62 NSCLC, 21.6 µM; in the assay with SK-MEL-5 melanoma, 17.6 µM. In addition, the TGI with NCI-H522 lung was 23 µM; in the assay with NCI-H226 lung it was above 63.1 µM; in the assay on T-47D breast, 35.3 µM; with MDA-MB-435 it was 40.9 µM; in the assay on HOP-62 NSCLC it was 58 µM; in the assay with SK-MEL-5 melanoma, 37 µM. In the assay on MOLT-4 leukemia, this compound yielded a TGI of 0.011 µM.
In the case of `COc1cccc2c1C(=O)c1c(O)c3c(c(O)c1C2=O)CC(O)(C(=O)CO)CC3OC1CC(N)C(O)C(C)O1` (stereo not drawn), the GI50 is 4.07 µg/mL in the assay with NCI-H522 lung; 1.75 µg/mL and 7.36 µg/mL in the assay with NCI-H226 lung; 7.53 µg/mL and 54.8 µg/mL in the assay on T-47D breast; 8.56 µg/mL and 67 µg/mL in the assay with MDA-MB-435; 5.83 µg/mL and 5.96 µg/mL with HOP-62 NSCLC; 4.76 µg/mL and 15.7 µg/mL with SK-MEL-5 melanoma. Also, the GI50 in the assay with MOLT-4 leukemia was 1.13 µg/mL and 1.46 µg/mL. Further, the TGI was 75 µg/mL in the assay with NCI-H522 lung; 12.6 µg/mL and 28.5 µg/mL in the assay on NCI-H226 lung; 73.9 µg/mL and > 150 µg/mL in the assay on T-47D breast; 75 µg/mL and > 150 µg/mL with MDA-MB-435; 75 µg/mL and > 150 µg/mL with HOP-62 NSCLC; 23.4 µg/mL and 44.8 µg/mL with SK-MEL-5 melanoma.
Regarding `CC1(C)N=C(N)N=C(N)N1c1cccc(Br)c1`, the GI50 in the assay on NCI-H522 lung is 4.29 µM; in the assay with T-47D breast, above 82.7 µM; in the assay on MDA-MB-435 it was 0.0612 µM; in the assay with HOP-62 NSCLC, 0.777 µM; with SK-MEL-5 melanoma, 1.03 µM; in the assay on MOLT-4 leukemia, 0.94 µM. Besides, the TGI with NCI-H522 lung, in the assay on NCI-H226 lung, in the assay with T-47D breast, in the assay on MDA-MB-435, in the assay on HOP-62 NSCLC and with SK-MEL-5 melanoma was above 100 µM each time. For the same compound, in the assay on MOLT-4 leukemia, the TGI is above 100 µM.
`[CH3][Sn]([CH3])([CH3])[O][N+](=O)[O-]`: the GI50 with NCI-H522 lung was 1.64 µM; in the assay on NCI-H226 lung, 3.5 µM; in the assay on T-47D breast it was 4.09 µM; in the assay with MDA-MB-435, 5.93 µM; in the assay on HOP-62 NSCLC it was 6.41 µM; in the assay with SK-MEL-5 melanoma, 1.52 µM. In addition, in the assay on MOLT-4 leukemia, the GI50 was 3.2 µM. Further, the TGI in the assay with NCI-H522 lung is 3.07 µM; in the assay with NCI-H226 lung, 7.39 µM; in the assay on T-47D breast, above 10 µM; in the assay on MDA-MB-435 it was above 10 µM; in the assay with HOP-62 NSCLC, above 10 µM; in the assay with SK-MEL-5 melanoma it was 2.97 µM. Further, the TGI in the assay with MOLT-4 leukemia is above 10 µM.
In the case of `Nc1ncnc2c1ccn2[C@@H]1O[C@H]([C@H](O)c2ccc(Cl)c(F)c2)[C@@H](O)[C@H]1O`, the GI50 in the assay with NCI-H522 lung was above 100 µM; with NCI-H226 lung it was 34.5 µM; in the assay with T-47D breast, 23.5 µM; with MDA-MB-435 it was above 100 µM; in the assay on HOP-62 NSCLC, above 100 µM; with SK-MEL-5 melanoma, 92.6 µM. In addition, in the assay on MOLT-4 leukemia, the GI50 is above 100 µM. In addition, the TGI in the assay with NCI-H522 lung, in the assay with NCI-H226 lung, in the assay with T-47D breast, with MDA-MB-435, in the assay on HOP-62 NSCLC and with SK-MEL-5 melanoma was above 100 µM in each case. This compound gave a TGI in the assay with MOLT-4 leukemia above 100 µM.
Turning to `COCc1c(-c2ccc(NC(=O)Nc3cc(C(F)(F)F)ccc3F)c(F)c2)c2c(N)ncnn2c1CN1CCOCC1`, the GI50 was 1.76 µM in the assay on NCI-H522 lung; 0.0747 µM with NCI-H226 lung; 2.14 µM with T-47D breast; 1.93 µM in the assay on MDA-MB-435; 2.05 µM in the assay on HOP-62 NSCLC; 2.49 µM with SK-MEL-5 melanoma. Moreover, the GI50 in the assay on MOLT-4 leukemia is 2.07 µM. In addition, the TGI is 4.05 µM in the assay with NCI-H522 lung; 5.25 µM in the assay with NCI-H226 lung; 9.95 µM in the assay on T-47D breast; above 10 µM with MDA-MB-435; 7.1 µM with HOP-62 NSCLC; above 10 µM with SK-MEL-5 melanoma. This compound had a TGI in the assay with MOLT-4 leukemia of 9.8 µM.
On to `COc1cccc(Nc2nccc(-c3cnn4ncccc34)n2)c1`, for which the GI50 in the assay with NCI-H522 lung is 0.122 µM; in the assay with NCI-H226 lung, 0.0546 µM; in the assay on T-47D breast it was 0.0776 µM; with MDA-MB-435 it was 0.0609 µM; in the assay on HOP-62 NSCLC it was 0.0798 µM; in the assay with SK-MEL-5 melanoma it was 0.0588 µM. Moreover, the GI50 in the assay on MOLT-4 leukemia is 0.078 µM. In addition, the TGI in the assay with NCI-H522 lung is 0.767 µM; with NCI-H226 lung, 0.18 µM; with T-47D breast it was 0.428 µM; in the assay with MDA-MB-435, 0.25 µM; in the assay with HOP-62 NSCLC, 0.532 µM; in the assay with SK-MEL-5 melanoma it was 0.561 µM.
As for `O=C(O)CCC(C(=O)O)N1C(=O)C2C3CCC(C3)C2C1=O` (stereo not drawn), the TGI in the assay on NCI-H522 lung, in the assay on NCI-H226 lung, in the assay on T-47D breast, in the assay with MDA-MB-435, with HOP-62 NSCLC and in the assay with SK-MEL-5 melanoma was above 100 µM each time. The TGI in the assay on MOLT-4 leukemia is above 100 µM.
`Cc1cc(Cl)cc(Cc2cc(Cl)cc(C)c2O)c1O`: the GI50 was 1.76 µM with NCI-H522 lung; 4.17 µM with NCI-H226 lung; 3.64 µM with T-47D breast; 2.05 µM in the assay with MDA-MB-435; 3.66 µM in the assay with HOP-62 NSCLC; 1.71 µM in the assay on SK-MEL-5 melanoma. For the same compound, in the assay with MOLT-4 leukemia, the GI50 was 3.45 µM. Also, the TGI is 6.65 µM in the assay with NCI-H522 lung; 20.1 µM in the assay on NCI-H226 lung; above 100 µM in the assay on T-47D breast; 6.39 µM in the assay on MDA-MB-435; 11.5 µM in the assay on HOP-62 NSCLC; 3.61 µM with SK-MEL-5 melanoma. This compound also returned a TGI in the assay on MOLT-4 leukemia of 49.8 µM.
As for `COC(=O)[C@]12CC[C@@H](C)[C@H](C)[C@@H]1C1=CC[C@@H]3[C@@]4(C)C(C=O)=C[C@@](C)(COC(=O)/C=C/c5ccccc5)[C@@H]4[C@H](O)C[C@@]3(C)[C@]1(C)CC2`, the GI50 was 4.47 µM with NCI-H522 lung; 2.36 µM in the assay with NCI-H226 lung; 4.4 µM with T-47D breast; 3.04 µM with MDA-MB-435; 9.4 µM in the assay with HOP-62 NSCLC; 2.2 µM in the assay on SK-MEL-5 melanoma. Further, the GI50 in the assay with MOLT-4 leukemia was 2.09 µM. The TGI in the assay with NCI-H522 lung was determined as 17.4 µM; in the assay with NCI-H226 lung, 9.66 µM; in the assay with T-47D breast, 84.1 µM; in the assay on MDA-MB-435, 10.3 µM; in the assay on HOP-62 NSCLC it was 32.1 µM; with SK-MEL-5 melanoma, 5.92 µM. Moreover, the TGI in the assay with MOLT-4 leukemia is 7.36 µM.
Consider `C/C(=N/N=C(N)N)c1ccc(NC(=O)Nc2ccc(/C(C)=N/N=C(N)N)cc2)cc1`, for which the GI50 was 7.14 µM with NCI-H522 lung; 25 µM in the assay with NCI-H226 lung; 8.29 µM with T-47D breast; 16 µM in the assay with MDA-MB-435; 21.8 µM in the assay with HOP-62 NSCLC; 10.6 µM with SK-MEL-5 melanoma. Moreover, in the assay with MOLT-4 leukemia, the GI50 is 25.7 µM. The TGI with NCI-H522 lung is 28.8 µM; with NCI-H226 lung, above 94.6 µM; with T-47D breast, 34.6 µM; in the assay on MDA-MB-435 it was above 83.8 µM; in the assay with HOP-62 NSCLC, above 60.3 µM; in the assay with SK-MEL-5 melanoma, 37.9 µM. The compound also came in with a TGI in the assay on MOLT-4 leukemia above 100 µM.
